Measurements taken from ChEMBL document CHEMBL3046270, “Bleaching herbicide norflurazon inhibits phytoene desaturase by competition with the cofactors” (J Agric Food Chem, 2001).
Active and inactive are the calls of the source.

Assays:
[1] = target: 15-cis-phytoene desaturase (Synechococcus elongatus (strain PCC 7942) (Anacystis nidulans R2)) (UniProt P26294); test: Competitive inhibition of Synechococcus phytoene desaturase using NADP as cofactor and phytoene as substrate at 0.1 uM after 2 hr by double reciprocal plot analysis
Chain of 15-cis-phytoene desaturase (Synechococcus elongatus (strain PCC 7942) (Anacystis nidulans R2)) (P26294 whole entry): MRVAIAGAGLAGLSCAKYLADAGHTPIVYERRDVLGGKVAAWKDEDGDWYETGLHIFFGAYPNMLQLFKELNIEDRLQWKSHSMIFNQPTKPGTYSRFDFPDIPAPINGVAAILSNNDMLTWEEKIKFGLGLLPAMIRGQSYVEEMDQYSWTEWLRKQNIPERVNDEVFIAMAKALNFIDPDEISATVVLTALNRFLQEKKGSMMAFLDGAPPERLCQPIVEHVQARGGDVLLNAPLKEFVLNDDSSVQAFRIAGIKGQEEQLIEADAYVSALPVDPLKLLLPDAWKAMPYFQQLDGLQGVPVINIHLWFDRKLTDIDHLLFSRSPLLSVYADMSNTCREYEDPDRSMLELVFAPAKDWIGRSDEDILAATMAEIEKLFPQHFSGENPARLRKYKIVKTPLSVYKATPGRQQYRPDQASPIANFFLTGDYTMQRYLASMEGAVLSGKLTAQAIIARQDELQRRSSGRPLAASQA

[2] = target: 15-cis-phytoene desaturase (Synechococcus elongatus (strain PCC 7942) (Anacystis nidulans R2)) (UniProt P26294); test: Competitive inhibition of Synechococcus phytoene desaturase using decyl plastoquinone as cofactor and phytoene as substrate at 0.1 uM after 2 hr by double reciprocal plot analysis
[3] = target: Phytoene desaturase (Gentiana lutea) (UniProt Q8W433); test: Competitive inhibition of Gentiana lutea desaturase using decyl plastoquinone as cofactor and phytoene as substrate at 0.1 uM after 2 hr by double reciprocal plot analysis
Chain of Phytoene desaturase (Gentiana lutea) (Q8W433 as listed by the source): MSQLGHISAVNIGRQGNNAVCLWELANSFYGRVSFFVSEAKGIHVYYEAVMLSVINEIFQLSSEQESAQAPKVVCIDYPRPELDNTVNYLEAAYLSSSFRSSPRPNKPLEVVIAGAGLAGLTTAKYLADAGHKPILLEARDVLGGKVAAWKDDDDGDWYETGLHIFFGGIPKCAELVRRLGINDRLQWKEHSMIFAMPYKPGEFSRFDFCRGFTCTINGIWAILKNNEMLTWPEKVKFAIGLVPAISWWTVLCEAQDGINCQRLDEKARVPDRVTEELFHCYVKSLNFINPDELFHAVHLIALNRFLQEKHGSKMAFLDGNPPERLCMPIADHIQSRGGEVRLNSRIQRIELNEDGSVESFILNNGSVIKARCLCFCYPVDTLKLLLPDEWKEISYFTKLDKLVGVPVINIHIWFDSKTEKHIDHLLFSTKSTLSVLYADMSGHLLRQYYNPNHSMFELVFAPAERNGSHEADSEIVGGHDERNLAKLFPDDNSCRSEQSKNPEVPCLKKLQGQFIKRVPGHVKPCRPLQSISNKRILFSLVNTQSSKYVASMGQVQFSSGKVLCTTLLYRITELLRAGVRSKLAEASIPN

Measured: inhibition

CNc1cnn(-c2cccc(C(F)(F)F)c2)c(=O)c1Cl
active: all assays above
